Results reported in patent US6562862B1, “Methods of inhibiting physiological conditions associated with an excess of neuropeptide Y” (Eli Lilly and Company, priority 1994, dated 2003).

What follows are molecules tested against T1, Y1 (Homo sapiens, UniProt P25929) (assay: Neuropeptide Y Binding Assay (125I-peptide YY, SK-N-MC cell homogenate)). Conditions: displacement of 0.1 nM 125I-peptide YY, SK-N-MC cells, about two hours at room temperature.
T1 construct: In this assay the cell line SK-N-MC was employed; endogenous in cells; host or cells: SK-N-MC cells (homogenate of scraped, pelleted cells), received from Sloane-Kettering Memorial Hospital
T1 sequence (P25929 1-384): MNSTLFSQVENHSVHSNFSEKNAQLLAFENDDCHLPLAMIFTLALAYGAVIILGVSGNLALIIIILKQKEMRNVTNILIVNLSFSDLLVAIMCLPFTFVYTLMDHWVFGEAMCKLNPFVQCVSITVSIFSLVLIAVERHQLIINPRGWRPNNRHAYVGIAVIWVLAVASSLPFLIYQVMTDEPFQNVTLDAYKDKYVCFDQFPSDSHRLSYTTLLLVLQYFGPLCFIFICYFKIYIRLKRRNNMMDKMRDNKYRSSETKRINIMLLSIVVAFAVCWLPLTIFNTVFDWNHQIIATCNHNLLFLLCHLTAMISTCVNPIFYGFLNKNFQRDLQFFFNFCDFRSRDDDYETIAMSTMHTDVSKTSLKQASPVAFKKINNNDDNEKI
Experimental: The biological activity of the compounds of the present invention was evaluated employing an initial screening assay which rapidly and accurately measured the binding of the tested compound to known neuropeptide Y receptor sites. Assays useful for evaluating neuropeptide Y receptor antagonists are well known in the art. See, e.g., U.S. Pat. No. 5,284,839, issued Feb. 8, 1994, which is herein incorporated by reference. See also, M. W. Walker, et al., Journal of Neurosciences, 8:2438-2446 (1988).
Neuropeptide Y Binding Assay
The ability of the compounds of the instant invention were assessed as to their ability to bind to neuropeptide Y using a protocol essentially as described in M. W. Walker, et al., supra. In this assay the cell line SK-N-MC was employed. This cell line was received from Sloane-Kettering Memorial Hospital, New York. These cells were cultured in T-150 flasks using Dulbecco's Minimal Essential Media (DMEM) supplemented with 5% fetal calf serum. The cells were manually removed from the flasks by scraping, pelleted, and stored at −70° C.
The pellets were resuspended using a glass homogenizer in 25 mM HEPES (pH 7.4) buffer containing 2.5 mM calcium chloride, 1 mM magnesium chloride, and 2 mg/L bacitracin. Incubations were performed in a final volume of 200 μl containing 0.1 nM ^125I-peptide YY (2200 Ci/mmol) and 0.2-0.4 mg protein for about two hours at room temperature.
Nonspecific binding was defined as the amount of radioactivity remaining bound to the tissue after incubating in the presence of 1 μM neuropeptide Y. In some experiments various concentrations of compounds were included in the incubation mixture.
Incubations were terminated by rapid filtration through glass fiber filters which had been presoaked in 0.3% polyethyleneimine using a 96-well harvester. The filters were washed with 5 ml of 50 mM Tris (pH 7.4) at 4° C. and rapidly dried at 60° C. The filters were then treated with melt-on scintillation sheets and the radioactivity retained on the filters were counted. The results were analyzed using various software packages. Protein concentrations were measured using standard coumassie protein assay reagents using bovine serum albumin as standards.

| Structure (SMILES) | IC50 [µM] |
| --- | --- |
| O=C(c1ccc(OCCN2CCCC2)cc1)c1c(-c2ccc(O)cc2)sc2cc(O)ccc12 [R1=H, R2=1-pyrrolidine, R3=H] | ~17 |
| O=C(c1ccc(OCCN2CCCCCC2)cc1)c1c(-c2ccc(O)cc2)sc2cc(O)ccc12 [R1=H, R2=1-hexamethylenimino, R3=H] | ~20 |
| O=C(c1ccc(OCCN2CCCC2)cc1)c1c(-c2ccc(O)cc2)sc2cc(O)ccc12 | ~10 |
| COc1ccc2c(C(=O)c3ccc(OCCN4CCCCC4)cc3)c(-c3ccc(O)cc3)sc2c1 [R1=CH3, R2=1-piperidine, R3=H] | ~12 |
